The nature of series [1]: physchem. The note with it: buffer, pH 7.
Series [2] is described as follows: in vitro. The note with it: rat, microsomes.
Series [3] is described as follows: in vitro. To be noted: human, microsomes.
The nature of series [4]: physchem. To be noted: buffer, pH 2.
Series [5] can be described thus: in vivo. To be noted: rat, po, 50 mg/kg.
Series [6] can be described thus: in vivo. The note with it: rat, po, 200 mg/kg.
The nature of series [7]: in vivo. To be noted: rat, po, 50 mg/kg. This is another data set of the same source.
Series [8] in a line: in vivo. To be noted: rat, po, 200 mg/kg. This is another data set of the same source.
A short description of series [9]: in vivo. The note with it: rat, po, 50 mg/kg. This is another data set of the same source.
A short description of series [10]: in vivo. The note with it: rat, po, 200 mg/kg. This is another data set of the same source.
Series [11] in a line: in vivo. To be noted: rat, po, 50 mg/kg. This is another data set of the same source.
Series [12] is described as follows: in vivo. To be noted: rat, po, 200 mg/kg. This is another data set of the same source.
Series [13] in a line: in vivo. To be noted: rat, po, 50 mg/kg. This is another data set of the same source.
The nature of series [14]: in vivo. The note with it: rat, po, 200 mg/kg. This is another data set of the same source.
Series [15] can be described thus: in vivo. To be noted: rat, po, 50 mg/kg. This is another data set of the same source.
Series [16] in a line: in vivo. To be noted: rat, po, 200 mg/kg. This is another data set of the same source.

Values after ≈ are worked out from the molar mass of the structure shown.

As usually defined, the solubility is the dissolved amount per volume that the medium holds. As a reminder, the half-life is the time in which the quantity being followed falls by half. A word on the Cmax: it is the maximum level reached in the sampled fluid or tissue. The AUC is concentration integrated over time. Higher therefore signals more exposure.

In the case of `CC(C)(O)CNC(=O)c1nc(C(=O)N2CCCCC2)c(-c2ccc(S(=O)(=O)NC(C)(C)C)c3ccccc23)s1`, the concentration in solution in “physchem [1]” (solubility) was 1.1 µM (≈ 0.63 µg/mL). Further, the half-life in “in vitro [2]” worked out at 0.2 h; in “in vitro [3]” it was 1.35 h.

As for `C[C@H](NS(=O)(=O)c1ccc(-c2sc(C(=O)NCC(C)(C)O)nc2C(=O)N2CC[C@@H](F)C[C@@H]2C)c(Cl)c1Cl)C(F)(F)F`, the solubility was 47 µM (≈ 31.2 µg/mL) in “physchem [1]” and 41 µM (≈ 27.2 µg/mL) in “physchem [4]”.

In turn, `CC(C)(O)CNC(=O)c1nc(CC2CCCCC2)c(-c2ccc(S(=O)(=O)NC(C)(C)C)c3ccccc23)s1` came in with a solubility in “physchem [1]” below 1 µM. Moreover, the half-life in the series “in vitro [2]” worked out at 0.783 h; in “in vitro [3]”, 1.25 h.

As for `C[C@H](NS(=O)(=O)c1ccc(-c2sc(C(=O)NCC(C)(C)O)nc2C(=O)N2CCC[C@@H]2CF)c(Cl)c1Cl)C(F)(F)F`, the solubility in “physchem [1]” is 4 µM (≈ 2.6 µg/mL); in the series “physchem [4]” it was below 4 µM.

For the molecule `C[C@H](NS(=O)(=O)c1ccc(-c2sc(NC(=O)CC(C)(C)O)nc2C(=O)N2CCC(F)CC2)c(Cl)c1Cl)C(F)(F)F`, the figures for the solubility in the series “physchem [1]” and in the series “physchem [4]” were 15 µM (≈ 9.74 µg/mL) and 16 µM (≈ 10.4 µg/mL), respectively. The half-life in “in vitro [2]” is 2.45 h; in “in vitro [3]” it was above 3 h.

As for `C[C@H](NS(=O)(=O)c1ccc(-c2sc(C(=O)NCC(C)(C)O)nc2C(=O)N2CCCC[C@@H]2C)c(Cl)c1Cl)C(F)(F)F`, the results for the solubility in “physchem [1]” and in the series “physchem [4]” were 21 µM (≈ 13.6 µg/mL) and 19 µM (≈ 12.3 µg/mL), respectively. In addition, the half-life in the series “in vitro [2]” was 0.817 h; in “in vitro [3]” it was above 3 h.

On to `CC[C@H](NS(=O)(=O)c1ccc(-c2sc(C(=O)NCC(C)(C)O)nc2C(=O)N(CC)CC)c(Cl)c1Cl)C(F)(F)F`, for which the solubility in the series “physchem [1]” was determined as 44 µM (≈ 27.9 µg/mL); in “physchem [4]”, 32 µM (≈ 20.3 µg/mL). Further, the half-life in the series “in vitro [2]” and in the series “in vitro [3]” was above 3 h each time.

Turning to `C[C@H](NS(=O)(=O)c1ccc(-c2sc(C(=O)NCC(C)(C)O)nc2C(=O)N2CC3CC3C2)c(Cl)c1Cl)C(F)(F)F` (some centres undefined), the figures for the solubility in “physchem [1]” and in “physchem [4]” were 8.7 µM (≈ 5.48 µg/mL) and 7 µM (≈ 4.41 µg/mL), respectively.

As for `C[C@H](NS(=O)(=O)c1ccc(-c2sc(C(=O)NCC(C)(C)O)nc2C(=O)N2CC[C@H](F)C[C@@H]2C)c(Cl)c1Cl)C(F)(F)F`, the figures for the solubility in the series “physchem [1]” and in “physchem [4]” were 54 µM (≈ 35.8 µg/mL) and 40 µM (≈ 26.5 µg/mL), respectively. Moreover, the half-life in the series “in vitro [2]” was 1.13 h; in the series “in vitro [3]”, above 3 h.

As for `C[C@H](NS(=O)(=O)c1ccc(-c2sc(C(=O)NCC(C)(C)O)nc2C(=O)N2CCC(F)CC2)c(Cl)c1Cl)C(F)(F)F`, the results for the Cmax in the series “in vivo [5]” and in “in vivo [6]” were 11.2 µg/mL and 49.4 µg/mL, respectively. Also, the AUC in the series “in vivo [7]” worked out at 31.5 µg·h/mL; in the series “in vivo [8]”, 282 µg·h/mL; in “in vivo [11]”, 0.87 µg·h/mL; in the series “in vivo [12]”, 6 µg·h/mL; in the series “in vivo [15]”, 1.11 µg·h/mL; in the series “in vivo [16]” it was 5.02 µg·h/mL. The Cmax at 4 day was 0.252 µg/mL in “in vivo [9]” and 1.9 µg/mL in “in vivo [10]”. Besides, the Cmax at 14 day in the series “in vivo [13]” came to 0.417 µg/mL; in “in vivo [14]”, 1.28 µg/mL. Moreover, the values for the solubility in the series “physchem [1]” and in the series “physchem [4]” were 116 µM (≈ 75.3 µg/mL) and 114 µM (≈ 74 µg/mL), respectively. For the same molecule, the half-life in “in vitro [2]” and in “in vitro [3]” was above 3 h throughout.

(Values after ChEMBL document CHEMBL4619752, “Optimization and biological evaluation of thiazole-bis-amide inverse agonists of RORγt” (Bioorg Med Chem Lett, 2020).)
